Assay results: patent US12569440B2, “Solid formulation of a 1,2,4-oxadiazole derivative” (ABAXYS THERAPEUTICS, priority 2019, dated 2026)
Each block holds one compound with its values, some of them ahead of it.

How the values were obtained:
[1] = Specific surface area by BET analysis (nitrogen adsorption-desorption at 77 K); format: physicochemical; conditions: for BET surface (specific surface area): nitrogen adsorption at 77 K, 0.05-0.20 P/P0
Experimental: Specific surface area was measured by Nitrogen adsorption-desorption analyses at 77 K with a volumetric adsorption analyser (Micromeritics 3Flex physisorption apparatus). The Brunauer—Emmet—Teller (BET) method was applied in the 0.05-0.20 P /PO range to calculate the specific surface area.

[2] = Formulation study: mixing Compound A with liquid or solid acids, resulting composition and physical stability; format: physicochemical; conditions: Compound A alone, before mixing
Experimental: In a round bottom flask, to a solution of A in anhydrous Et2O (6 mL/mmol) under argon atmosphere, the acid was added dropwise, as a pure liquid or in anhydrous Et2O (3 mL/mmol) solution. The mixture was allowed to stand for 3 h. The product was then isolated by evaporation of the solvent and was dried under vacuum.
Two different net grinding procedures were used: • Solid mixing 1: In an Eppendorf, A (200 mg, 0.5 mmol) and the acid were added. The Eppendorf was then placed in the grinding device (Retsch MM400) and allowed to stir for 90 min at 30 Hz. • Solid mixing 2: In a mortar, A (200 mg, 0.5 mmol) and acid were added and then manually grinded with a pestle.

BET surface (specific surface area) [1]: 6.7 m^2/g | change of specific surface area (BET) ([1]; saccharin after grinding vs commercial, A-2SA vs saccharin alone after same grinding procedure): about −30%
Compound: O=C1NS(=O)(=O)c2ccccc21 [Saccharin (after grinding), 1,1-dioxo-1,2-benzothiazol-3-one]

BET surface (specific surface area) ([1]; listed as Saccharin (commercial)): 9.9 m^2/g
Compound: O=C1NS(=O)(=O)c2ccccc21 [Saccharin, 1,1-dioxo-1,2-benzothiazol-3-one]

physical form of free compound [2]: oil
Compound: FC(F)(F)c1ccc(-c2noc(CN3CCCC(CN4CCOCC4)C3)n2)cc1 (stereo not shown) [Compound A]
